Reference: publication PMC6009973 (Journal of Enzyme Inhibition and Medicinal Chemistry, 2017)

What follows are compounds tested against T1, CpeCA (Clostridium perfringens, UniProt A0A0H2YPC2). Settings: read-out: CpeCA^bβ; CO2 1.7-17 mM, 20 mM TRIS pH 8.3, 20 mM Na2SO4, 15 min pre-incubation at room temperature; errors 5-10%.
T1 construct: gene CPF_0414
T1 sequence (A0A0H2YPC2 1-190): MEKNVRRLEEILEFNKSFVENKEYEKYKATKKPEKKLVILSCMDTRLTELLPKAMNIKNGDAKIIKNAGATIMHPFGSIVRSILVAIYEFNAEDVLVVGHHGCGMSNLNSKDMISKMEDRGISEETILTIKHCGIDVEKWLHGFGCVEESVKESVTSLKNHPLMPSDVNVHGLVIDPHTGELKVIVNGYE

First: NS(=O)(=O)c1cc2c(cc1Cl)NCNS2(=O)=O [HCT, hydrochlorothiazide]
Second: NS(=O)(=O)c1cc(Cl)c(Cl)c(S(N)(=O)=O)c1 [DCP, dichlorophenamide]
The Ki of the first is 3.2-fold higher: 219 nM for the first, 68 nM for the second.

First: Cc1onc(-c2ccccc2)c1-c1ccc(S(N)(=O)=O)cc1 [VLX, valdecoxib]
Second: Cc1ccc(-c2cc(C(F)(F)F)nn2-c2ccc(S(N)(=O)=O)cc2)cc1 [CLX, celecoxib]
The Ki of the first is 1.9-fold lower: 160 nM for the first, 312 nM for the second. The first binds more tightly here.

Compared with `CC1(C)O[C@@H]2[C@@H](CO[C@@]3(COS(N)(=O)=O)OC(C)(C)O[C@@H]23)O1` [TPM, topiramate], `CCN[C@H]1CN(CCCOC)S(=O)(=O)c2sc(S(N)(=O)=O)cc21` [BRZ, brinzolamide] is 1.7-fold lower in Ki: 204 nM for the first, 121 nM for the second.

First: NS(=O)(=O)Cc1noc2ccccc12 [ZNS, zonisamide]
Second: NS(=O)(=O)c1nnc(NS(=O)(=O)c2ccccc2)s1 [BZA, benzolamide]
The Ki of the first is higher: greater than 100000 nM for the first, 497 nM for the second. The second binds more tightly here.

Going from `CCN1CCCC1CNC(=O)c1cc(S(N)(=O)=O)ccc1OC` (centres unmarked) [SLP, sulpiride] to `NS(=O)(=O)c1ccc(N2CCCCS2(=O)=O)cc1` [SLT, sulthiame], the Ki falls from 389 nM to 63.1 nM (6.2-fold).

First: NS(=O)(=O)c1ccc(CCNS(=O)(=O)c2ccc([N+](=O)[O-])cc2CO)cc1 [compound 24, 4-(2-hydroxymethyl-4-nitrophenyl-sulphonamido)ethylbenzenesulphonamide]
Second: NS(=O)(=O)c1ccc(S(=O)(=O)Nc2cccc3c(Cl)c[nH]c23)cc1 [IND, indisulam]
The Ki of the first is 3.4-fold lower: 51.2 nM for the first, 173 nM for the second.

First: O=C1NS(=O)(=O)c2ccccc21 [SAC, saccharin]
Second: CC(=O)N=c1sc(S(N)(=O)=O)nn1C [MZA, methazolamide]
The Ki of the first is higher: greater than 100000 nM for the first, 113 nM for the second.
